The values that follow come from patent US5905073A, “Use of 2-hydroxy-5-phenylazobenzoic acid derivatives as colon cancer chemopreventative and chemotherapeutic agents” (priority 1996, dated 1999).

pIC50: −log10 of the molar value. Read-outs that look alike come from different tables or passages of the source.

Data set [1] concerns HT-29 cells. In words: Proliferation of HT-29 colon cancer cells, Coulter Counter cell count. The format is cell-based, human. On the procedure: Cells were grown in Dulbeccos Modified Eagle medium supplemented with 10% calf serum in an atmosphere of 5% CO2 at 37° C. For growth experiments, cells were seeded into 24-well tissue culture dishes (2 cm^2 /well) at a density of 20,000 cells/well and allowed to attach for 12 hours. The growth medium was then changed and replaced with fresh media containing the test drugs.
The test drugs were dissolved in tissue culture media at the desired concentration and added to individual wells. To determine the number of cells per well, media was removed and the cells washed with phosphate buffered saline solution. The cells were then incubated 15 minutes with trypsin-EDTA solution until detached. The detached cells were then removed from the wells and counted using a Coulter Counter (Model ZBI).
The cell numbers shown in Table I are the average of triplicate culture wells.

Data set [2] concerns LS174T cells. In words: Dose response growth inhibition of LS174T cells, Sulforhodamine B dye binding assay. The format is cell-based, human. The following applies: Homo sapiens. On the procedure:
For dose response studies a sensitive dye binding assay was adapted which allows simultaneous assay of multiple agents and doses in 96-well plates. Cells were plated and allowed to adhere for 24 hours prior to addition of the study drug. Cell densities were then determined 4 days later by fixation of the wells and staining with Sulforhodamine B dye.
(In general: In SRB staining, fixed cells bind dye roughly in proportion to their protein.)

Data set [3] has as its system aberrant crypts induced by azoxymethane (AOM). In words: Inhibition of azoxymethane-induced aberrant crypt formation (induction study). The format is in vivo, rat (F344). The following applies: in drinking water, distal 7-8 cm of colon. An excerpt:
Aberrant crypts were originally described in carcinogen-induced colonic mucosa as crypts of "increased size, thicker epithelial lining and increased pericryptal zones" (Bird et al. (1989) Cancer Surv. 8:189-200). […] The anti-tumor activity of several of these agents has been confirmed in longer term AOM animal studies. The aberrant crypt model is, therefore, an ideal in vivo assay for efficacy of balsalazide and metabolites.
Inhibition of Aberrant Crypt Induction.
Four groups of 5 male F344 rats were used. Animals were 6-8 weeks of age at the start of dosing with a starting weight range within +/-20% of the overall mean. The expected response to AOM treatment from published studies is the formation of 100-140 aberrant crypts per animal (Wargovich et al. (1992) J. Cell. Biochem. 16G:51-54). […]
Body weights were recorded twice weekly, and water consumed by each cage of animals measured twice weekly. Consumption is calculated as average ml/animal/cage.
For aberrant crypt analysis, animals were sacrificed under CO2 euthanasia at the end of either three weeks or five weeks of dosing. […] After a saline rinse, the number of foci of aberrant crypts was scored by counting under a microscope at 40-100× magnification. The length of the colonic tissue was also measured. […]

In data set [4] the test system is aberrant crypt foci induced by azoxymethane (AOM). In words: Inhibition of aberrant crypt progression / multiplicity, treatment started 24 hours after second AOM injection. The format is in vivo, rat. The source says: Inhibition of Aberrant Crypt Progression. The data shown in FIG. 4 were collected from the distal 7-8 cm of colonic tissue. At these early time points, this area contained over 80% of the total aberrant crypt foci. An additional study was therefore designed to examine a longer time point, assess the distribution throughout the entire 25 cm of colon and determine if the drug treatment could be initiated after the second AOM injection.
In the second study, groups of 8 animals received two injections of azoxymethane one week apart. Balsalazide treatment was then initiated with one group 24 hours following the second injection. Six weeks later the animals were processed for aberrant crypt analysis. Crypts were stained in situ by rectal instillation of a 0.2% solution of methylene blue for 15 min under anesthesia. Animals were then exsanguinated, colonic tissue from the anus to the caecum was excised, cleaned and fixed for 2 hours in 2% paraformaldehyde. Crypts were counted by viewing at a magnification of 40×. In addition to collecting data on the number of foci, data was also collected on the multiplicity of aberrant crypts per foci.
Previous studies by Pretlow et al (Pretlow et al. (1992) Carcinogenesis 13:1509-1512) have reported on the relationship between aberrant crypt multiplicity and ultimate tumor development using the same carcinogenesis model. […] The data from the above experiment was analyzed to determine the effect of balsalazide on the aberrant crypt multiplicity. […] For foci with 1-3 crypts the mean inhibition ranged from 57-61% (p<0.003, Fischer exact test) while the number of foci with 4 or more crypts was reduced by a mean of 72-76% (p<0.001). When the results on the number of foci containing 4 or more crypts are compared with those containing 3 or less the difference remains statistically significant at the p<0.022 level using the Fischer exact test.

The test system of data set [5] is rectal mucosal reactive oxygen metabolite production. The settings on record: cited from earlier work.
For data set [6] the following is noted: rat; cited from earlier work.
The conditions of data set [7]: cited from earlier work.
The subject of data set [8] is colonic inflammation. The following applies: several animal models of colonic inflammation; cited from earlier work.
[9] abbreviates: 6 weeks after second AOM injection, 8 animals.

For `O=C(O)CCNC(=O)c1ccc(/N=N/c2ccc(O)c(C(=O)O)c2)cc1` [Balsalazide], the “Cell No. on Day 10” value in data set [1] (HT-29, 10 mM, average of triplicate wells) was 47500. Moreover, the activity at 10000 µM in data set [1] (Homo sapiens, HT-29, 240 h, read-out: % of Control Cells) worked out at 3.6%. The pIC50 in data set [2] (Table IV, read-out: IC50 for inhibition of human colon cancer cell proliferation) was 2.28. The pIC50 in data set [2] (text (FIG. 5), read-out: IC50) was 2.28. In data set [3] (week 1), the “inhibition in the average number of aberrant crypts” value is 61.8%. Moreover, in data set [3] (week five), the “inhibition in the average number of aberrant crypts” value amounted to 58.1%. Further, in data set [4] (setting [9]), the “mean number of foci, Total” value came out at 63.75; the “mean number of foci, multiplicity 1” value is reported as 10.3; the “mean number of foci, multiplicity 2” value is reported as 19.1; the “mean number of foci, multiplicity 3” value turned out to be 15.3. In addition, in data set [4] (setting [9]), the “mean number of foci, multiplicity 4” value is on record as 8.5 and the “mean number of foci, multiplicity 5 to 8” value stood at 9.6. Moreover, the “inhibition of aberrant crypt foci overall” value in data set [4] (given beginning 24 hours following second AOM injection, 6 weeks) is on record as “approximately 60%”. Also, the “mean reduction of number of foci with 4 or more crypts” value in data set [4] (p<0.001) was 72-76%. In data set [4] (p<0.003, Fischer exact test), the “mean inhibition of foci with 1-3 crypts” value is on record as 57-61%. The “reduction of foci with the greatest number of aberrant crypts relative to foci containing 2-3” value in data set [4] (rat, in vivo) is on record as “almost twice”. Moreover, the “reduction of rectal mucosal reactive oxygen metabolite production” value in data set [5] (rectal biopsies, ulcerative colitis patients) is reported as “over 90%”. Also, the “effectiveness relative to taurine, ascorbate or N-acetyl cysteine” value in data set [5] (similar concentrations) is recorded as “more effective”. Besides, the maximum tolerated dose in data set [6] was > 12,000 mg/kg/day. In addition, in data set [7] (human, in vivo), the “gastric or duodenal ulceration” value was “no evidence of gastric or duodenal ulceration” and the gastrointestinal tolerance entry is “excellent gastrointestinal tolerance”. The nephrotoxicity result in data set [7] (over 500 patients, some for as long as three years) was “no evidence of nephrotoxicity”. Besides, the “anti-inflammatory activity in animal models” value in data set [8] was “possesses anti-inflammatory activity”.
